Values quoted from earlier work, collected in patent publication US20170151174A1, “MAGNETOENZYMATIC CARRIER SYSTEM FOR IMAGING AND TARGETED DELIVERY AND RELEASE OF ACTIVE AGENTS” (priority 2014, published 2017).

Tested on: colon HT-29 cancer cells
Conditions: SMase activity of 0.5 U/ml

sphingomyelinase [SMase]
cell death: 80%
